Measurements reported in patent publication US7666835B2 (Imperial Innovations Limited, priority 2001, dated 2010).
No end group written: not given here.

Assays:
[1] = ICV injection in sated rats at onset of dark phase: food intake and behaviour (study 3); format: in vivo, rat; details: study 3a, 3 nmol ICV, early dark phase, vs saline
Procedure: Food intake was measured 1 h postinjection (study 3a), and behaviour was assessed (study 3b).

[2] = ICV injection, food intake in 24-h fasted rats (studies 1a, 2a); format: in vivo, rat; details: study 1a, 3 nmol ICV; for refeeding (food intake) after ICV injection: 24-h fasted rats, vs saline
Source text: (§1) Animals had permanent stainless steel guide cannulas (Plastics One, Roanoke, Va.) stereotactically implanted ICV or iPVN.

[3] = iPVN injection, food intake in 24-h fasted rats (studies 1b, 2b); format: in vivo, rat; details: for refeeding (food intake) after iPVN injection: study 1b, OXM, GLP-1 (3 nmol [sic]), exendin-4 0.03 nmol, glicentin, glucagon 1 nmol, SP-1 3 nmol, fasted rats
Procedure: as §1
Therefore, exendin-4 was injected iPVN at a dose of 0.03 nmol.

[4] = tested on: fos-like immunoreactivity; assay: fos-like immunoreactivity (FLI) in hypothalamus and brainstem after IP injection; format: in vivo, rat; details: IP OXM 50 nmol/kg or CCK 15 nmol/kg; 90 minutes after injection
Source text: The brains were removed and post-fixed overnight in PBF and then transferred to PB-sucrose (20% w/v) overnight. 40 μm coronal sections of brain and brainstem were cut on a freezing microtome and stained for fos-like immunoreactivity (FLI) by the avitin-biotin-peroxidase method. The sections were then mounted on poly-L-lysine-coated slides, dehydrated in increasing concentrations of ethanol (50-100%), delipidated in xylene and coverslipped using DPX mountant. Slides were examined for FLI-positive nuclei using a light microscope (Nikon Eclipse E-800) and images captured using a microimager (Xillix MicroImager). The numbers of FLI-positive nuclei in the hypothalamus and brainstem were counted by an independent member of the research team who was blinded to the experimental groups. The average number of FLI-positive nuclei per section was calculated and expressed as an integer for each animal.

[5] = target: T1, GLP-1 receptor (Rattus norvegicus, UniProt P32301); assay: iPVN coinjection of exendin-(9-39) with GLP-1 or OXM, food intake (study 4b); format: in vivo
T1 construct: from tissue; host or cells: rat hypothalamus (membrane preparation)
T1 sequence (P32301 22-463): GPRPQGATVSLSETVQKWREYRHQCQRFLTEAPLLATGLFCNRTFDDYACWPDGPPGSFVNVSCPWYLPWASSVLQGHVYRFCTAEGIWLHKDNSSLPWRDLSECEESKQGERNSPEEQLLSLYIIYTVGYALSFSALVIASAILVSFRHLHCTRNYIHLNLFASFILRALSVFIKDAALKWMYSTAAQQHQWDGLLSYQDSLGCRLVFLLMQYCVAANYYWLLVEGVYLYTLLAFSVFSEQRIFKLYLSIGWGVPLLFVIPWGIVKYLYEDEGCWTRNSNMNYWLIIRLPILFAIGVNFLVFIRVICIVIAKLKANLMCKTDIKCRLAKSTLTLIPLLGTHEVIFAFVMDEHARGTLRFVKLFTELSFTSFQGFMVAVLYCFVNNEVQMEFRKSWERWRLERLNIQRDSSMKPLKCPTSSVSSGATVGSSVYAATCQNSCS
Procedure: (§2) Animals had permanent stainless steel guide cannulas (Plastics One, Roanoke, Va.) stereotactically implanted ICV or iPVN. All studies were carried out in the early light phase, between 0900-1100 h, after a 24-h fast, and food intake was measured 1, 2, 4, 8, and 24 h postinjection.

[6] = target: T1, GLP-1 receptor; assay: ICV coadministration of exendin-(9-39) with GLP-1 or OXM, food intake (study 4a); format: in vivo; details: 1 h food intake
Procedure: as §2

[7] = target: T2, arcuate nucleus GLP-1 receptors (Rattus norvegicus, UniProt P32301); assay: iARC exendin 9-39 prior to IP OXM or GLP-1, 1 hour food intake; format: in vivo
T2 construct: 24-hour fasted rats received an iARC injection of saline or exendin9-39 (5 nmoles); from tissue; host or cells: living rat, hypothalamic arcuate nucleus
T2 sequence (P32301 22-463): T1 sequence (P32301 22-463)
Source text: Rats cannulated into the arcuate nucleus were randomised into 6 groups (n=10-12 per group). […] The injection details are described in Table 1 below.

CC[C@H](C)[C@H](NC(=O)[C@H](Cc1ccccc1)NC(=O)[C@H](CCC(=O)O)NC(=O)[C@H](CCCCN)NC(=O)[C@H](C)NC(=O)[C@H](C)NC(=O)[C@H](CCC(N)=O)NC(=O)CNC(=O)[C@H](CCC(=O)O)NC(=O)[C@H](CC(C)C)NC(=O)[C@H](Cc1ccc(O)cc1)NC(=O)[C@H](CO)NC(=O)[C@H](CO)NC(=O)[C@@H](NC(=O)[C@H](CC(=O)O)NC(=O)[C@H](CO)NC(=O)[C@@H](NC(=O)[C@H](Cc1ccccc1)NC(=O)[C@@H](NC(=O)CNC(=O)[C@H](CCC(=O)O)NC(=O)[C@H](C)NC(=O)[C@@H](N)Cc1c[nH]cn1)[C@@H](C)O)[C@@H](C)O)C(C)C)C(=O)N[C@@H](C)C(=O)N[C@@H](Cc1c[nH]c2ccccc12)C(=O)N[C@@H](CC(C)C)C(=O)N[C@H](C(=O)N[C@@H](CCCCN)C(=O)NCC(=O)N[C@@H](CCCNC(=N)N)C(N)=O)C(C)C [GLP-1, glucagon-like peptide-1]
food intake 1 h postinjection [1]: significantly reduced food intake
refeeding (food intake) after ICV injection [2]: significantly reduced refeeding
duration of inhibition of food intake postinjection ([2]; fasted rats): 4 h
refeeding (food intake) after iPVN injection [3]: inhibited refeeding
food intake after iPVN injection ([3]; study 2b, 1 nmol iPVN, until 8 h postinjection): significantly reduced

CCK-8 (DYMGWMDF; ends and bridges not checked; UniProt P06307 96-103, looked up) [positive control for gastric emptying and brainstem FLI]
FLI / c-fos expression in the brainstem (NTS, area postrema) [4]: dense staining of FLI

exendin-4
refeeding (food intake) after iPVN injection [3]: inhibited refeeding

exendin-(9-39)
effect of coinjected exendin-(9-39) on anorectic effect of GLP-1 ([5]; exendin-(9-39) 10 nmol with GLP-1 1 nmol): blocked
effect of coinjected exendin-(9-39) on anorectic effect of OXM ([5]; exendin-(9-39) 10 nmol with OXM 1 nmol): blocked
effect of coadministered exendin-(9-39) on anorectic effect of GLP-1 ([6]; exendin-(9-39) 30 nmol with GLP-1 3 nmol (10:1)): blocked the anorectic effects of GLP-1
effect of coadministered exendin-(9-39) on anorectic effect of OXM ([6]; exendin-(9-39) 30 nmol with OXM 3 nmol): attenuation of the anorectic effect of OXM
Food intake ([7]; 1 hour, iARC injection / IP injection 15 minutes later, exendin 9-39 5 nmoles, OXM or GLP-1 30 nmol/kg, Saline/saline 9.2): 9.0 g
effect of prior iARC exendin 9-39 on inhibition of food intake by IP GLP-1 ([7]; GLP-1 30 nmol/kg IP): not affected
effect of prior iARC exendin 9-39 on anorexia caused by IP OXM ([7]; exendin 9-39 (300 nmol/kg as printed) into the ARC, OXM 30 nmol/kg IP): blocked

glucagon
refeeding (food intake) after ICV injection [2]: failed to affect food intake at any time point
refeeding (food intake) after iPVN injection [3]: failed to affect food intake at any time point
